# From patent US9604933B2, “Pyrazolochalcones as potential anticancer agents” (COUNCIL OF SCIENTIFIC AND INDUSTRIAL RESEARCH, priority 2013, dated 2017)
# What was measured:
# SF-268 = experiment: NCI SRB cytotoxicity, CNS SF-268; assay type: cell-based; settings: Homo sapiens, 48 h exposure
# Method: (§1) The pyrazolochalcones (7e, 8e, 10e, 11e, 12e, 13e and 8f) have been tested against fifty nine human tumor cell lines derived from nine cancer types (leukemia, non-small cell lung cancer, colon cancer, CNS cancer, melanoma, ovarian cancer, renal cancer, prostate cancer and breast cancer) as per the NCI protocol. For each compound, dose response curves for individual cell lines have been measured at a minimum of five concentrations at 10 fold dilutions. A protocol of 48 h continuous drug exposure has been used, and a sulforhodamine B (SRB) protein assay has been used to estimate cell viability or growth. The concentration for 50% cell growth inhibition (GI50), 50% cell death (LC50, 50% growth) and total cell growth inhibition (TGI, 0% growth) values were tabulated (Table-1). DMSO was used as control to calculate the values of GI50, LC50 and TGI. The compounds 7e, 8e, 10e, 11e, 12e, 13e and 8f has been evaluated for their in vitro cytotoxicity in […] cell lines from nine human cancer types of leukemia (K-562, SR), non-small cell lung (Hop-62, NCI-H226, NCI-H522), colon (HCT-116, HCT-15, HCC-2998), CNS (SF-539), melanoma (SK-MEL-5, UACC-62, M14), ovarian (IGROV1), renal (A498), prostate (PC3) and breast (BT-549, MDA-MB-435, HS578T) origin. The results are expressed as percent of cell growth determined relative to that of untreated control cells (Table 2).
# CCRF-CEM = experiment: NCI SRB cytotoxicity, leukemia CCRF-CEM; assay type: cell-based; settings: Homo sapiens, 48 h exposure
# Method: as §1
# HCC-2998 = experiment: NCI SRB cytotoxicity, colon HCC-2998; assay type: cell-based; settings: Homo sapiens, 48 h exposure
# Method: as §1
# T-47D = experiment: NCI SRB cytotoxicity, breast T-47D; assay type: cell-based; settings: Homo sapiens, T47D, 48 h exposure
# Method: as §1
# LOX IMVI = experiment: NCI SRB cytotoxicity, melanoma LOX IMVI; assay type: cell-based; settings: Homo sapiens, 48 h exposure
# Method: as §1
# Colon = experiment: NCI SRB cytotoxicity, colon panel average; assay type: cell-based, human; settings: average of cell lines; for LC50: read-out: Log10 LC50 (concentration in mol/L causing 50% cell death) (converted)
# Method: as §1
# (§2) Each cancer type represents the average of six to eight different cancer cell lines.
# HOP92 = experiment: NCI SRB cytotoxicity, non-small cell lung HOP92; assay type: cell-based; settings: Homo sapiens, HOP-92, 48 h exposure
# Method: as §1
# SNB-19 = experiment: NCI SRB cytotoxicity, CNS SNB-19; assay type: cell-based; settings: Homo sapiens, 48 h exposure
# Method: as §1
# TK-10 = experiment: NCI SRB cytotoxicity, renal TK-10; assay type: cell-based; settings: Homo sapiens, 48 h exposure
# Method: as §1
# UACC-62 = experiment: NCI SRB cytotoxicity, melanoma UACC-62; assay type: cell-based; settings: Homo sapiens, 48 h exposure
# Method: as §1
# A549/ATCC = experiment: NCI SRB cytotoxicity, non-small cell lung A549/ATCC; assay type: cell-based; settings: Homo sapiens, 48 h exposure
# Method: as §1
# Leukemia = experiment: NCI SRB cytotoxicity, leukemia panel average; assay type: cell-based, human; settings: average of cell lines; for CC50: read-out: Log10 LC50 (concentration in mol/L causing 50% cell death) (converted)
# Method: as §1, §2
# SNB-75 = experiment: NCI SRB cytotoxicity, CNS SNB-75; assay type: cell-based; settings: Homo sapiens, 48 h exposure
# Method: as §1
# CNS = experiment: NCI SRB cytotoxicity, CNS panel average; assay type: cell-based, human; settings: average of cell lines; for LC50: read-out: Log10 LC50 (concentration in mol/L causing 50% cell death) (converted)
# Method: as §1, §2
# UO-31 = experiment: NCI SRB cytotoxicity, renal UO-31; assay type: cell-based; settings: Homo sapiens, 48 h exposure
# Method: as §1
# SK-OV-3 = experiment: NCI SRB cytotoxicity, ovarian SK-OV-3; assay type: cell-based; settings: Homo sapiens, 48 h exposure
# Method: as §1
# SF-539 = experiment: NCI SRB cytotoxicity, CNS SF-539; assay type: cell-based; settings: Homo sapiens, 48 h exposure
# Method: as §1
# Non-small cell lung = experiment: NCI SRB cytotoxicity, non-small cell lung panel average; assay type: cell-based, human; settings: average of cell lines; for LC50: read-out: Log10 LC50 (concentration in mol/L causing 50% cell death) (converted)
# Method: as §1, §2
# A498 = experiment: NCI SRB cytotoxicity, renal A498; assay type: cell-based; settings: Homo sapiens, 48 h exposure
# Method: as §1
# Melanoma = experiment: NCI SRB cytotoxicity, melanoma panel average; assay type: cell-based, human; settings: average of cell lines; for LC50: read-out: Log10 LC50 (concentration in mol/L causing 50% cell death) (converted)
# Method: as §1, §2
# MOLT-4 = experiment: NCI SRB cytotoxicity, leukemia MOLT-4; assay type: cell-based; settings: Homo sapiens, 48 h exposure
# Method: as §1
# PC-3 = experiment: NCI SRB cytotoxicity, prostate PC-3; assay type: cell-based; settings: Homo sapiens, 48 h exposure
# Method: as §1
# NCI/ADR-RES = experiment: NCI SRB cytotoxicity, ovarian NCI/ADR-RES; assay type: cell-based; settings: Homo sapiens, 48 h exposure
# Method: as §1
# MCF7 = experiment: NCI SRB cytotoxicity, breast MCF7; assay type: cell-based; settings: Homo sapiens, 48 h exposure
# Method: as §1
# SK-MEL-28 = experiment: NCI SRB cytotoxicity, melanoma SK-MEL-28; assay type: cell-based; settings: Homo sapiens, 48 h exposure
# Method: as §1
# NCI-H460 = experiment: NCI SRB cytotoxicity, non-small cell lung NCI-H460; assay type: cell-based; settings: Homo sapiens, 48 h exposure
# Method: as §1
# ACHN = experiment: NCI SRB cytotoxicity, renal ACHN; assay type: cell-based; settings: Homo sapiens, 48 h exposure
# Method: as §1
# SR = experiment: NCI SRB cytotoxicity, leukemia SR; assay type: cell-based; settings: Homo sapiens, 48 h exposure
# Method: as §1
# NCIH322M = experiment: NCI SRB cytotoxicity, non-small cell lung NCIH322M; assay type: cell-based; settings: Homo sapiens, NCI-H322M, 48 h exposure
# Method: as §1
# RXF 393 = experiment: NCI SRB cytotoxicity, renal RXF 393; assay type: cell-based; settings: Homo sapiens, 48 h exposure
# Method: as §1
# Ovarian = experiment: NCI SRB cytotoxicity, ovarian panel average; assay type: cell-based, human; settings: average of cell lines; for CC50: read-out: Log10 LC50 (concentration in mol/L causing 50% cell death) (converted)
# Method: as §1, §2
# DU-145 = experiment: NCI SRB cytotoxicity, prostate DU-145; assay type: cell-based; settings: Homo sapiens, 48 h exposure
# Method: as §1
# [1] = Homo sapiens, read-out: Log10 GI50 (concentration in mol/L causing 50% growth inhibition) (converted)
compound,measurement,setting,value
"COc1cc(C(=O)/C=C/c2cc(-c3cc(OC)c(OC)c(OC)c3)n[nH]2)cc(OC)c1OC [10e, (E)-1-(3,4,5-trimethoxyphenyl)-3-(3-(3,4,5-trimethoxyphenyl)-1H-pyrazol-5-yl)prop-2-en-1-one]",GI50,SF-268,1940 nM
same,GI50,CCRF-CEM,1680 nM
same,GI50,HCC-2998,1830 nM
same,GI50,T-47D,1130 nM
same,GI50,LOX IMVI,1520 nM
same,GI50,Colon; [1],1620 nM
same,LC50,Colon; Homo sapiens,6030 nM
same,Log10 TGI (concentration in mol/L causing total growth inhibition),Colon,−5.50 mol/L
same,GI50,HOP92,860 nM
same,GI50,SNB-19,1660 nM
same,GI50,TK-10,1460 nM
same,GI50,UACC-62,1780 nM
same,GI50,A549/ATCC,2720 nM
same,GI50,Leukemia; [1],1200 nM
same,CC50,Leukemia; Homo sapiens,0.0001 mol/L
same,Log10 TGI (concentration in mol/L causing total growth inhibition (0% growth)),Leukemia,−4.80 mol/L
same,GI50,SNB-75,1540 nM
same,GI50,CNS; [1],1620 nM
same,LC50,CNS; Homo sapiens,7940 nM
same,Log10 TGI (concentration in mol/L causing total growth inhibition (0% growth)),CNS,−5.46 mol/L
same,GI50,UO-31,1190 nM
same,GI50,SK-OV-3,3200 nM
same,GI50,SF-539,1290 nM
same,GI50,Non-small cell lung; [1],1290 nM
same,LC50,Non-small cell lung; Homo sapiens,13500 nM
same,Log10 TGI (concentration in mol/L causing total growth inhibition (0% growth)),Non-small cell lung,−5.42 mol/L
same,GI50,A498,1610 nM
same,GI50,Melanoma; [1],1700 nM
same,LC50,Melanoma; Homo sapiens,6460 nM
same,Log10 TGI (concentration in mol/L causing total growth inhibition),Melanoma,−5.47 mol/L
same,GI50,MOLT-4,2320 nM
same,GI50,PC-3,1470 nM
same,GI50,NCI/ADR-RES,3470 nM
same,GI50,MCF7,640 nM
same,GI50,SK-MEL-28,1820 nM
same,GI50,NCI-H460,1890 nM
same,GI50,ACHN,1620 nM
same,GI50,SR,390 nM
same,GI50,NCIH322M,2000 nM
same,GI50,RXF 393,1260 nM
same,GI50,Ovarian; [1],2190 nM
same,CC50,Ovarian; Homo sapiens,14500 nM
same,Log10 TGI (concentration in mol/L causing total growth inhibition (0% growth)),Ovarian,−5.23 mol/L
"COc1cc(-c2cc(/C=C/C(=O)c3ccc4c(c3)OCO4)[nH]n2)cc(OC)c1OC [11e, (E)-1-(benzo[d][1,3]dioxol-5-yl)-3-(3-(3,4,5-trimethoxyphenyl)-1H-pyrazol-5-yl)prop-2-en-1-one]",GI50,SF-268,2970 nM
same,GI50,CCRF-CEM,1570 nM
same,GI50,HCC-2998,1950 nM
same,GI50,T-47D,2510 nM
same,GI50,LOX IMVI,1820 nM
same,LC50,Colon; Homo sapiens,21900 nM
same,Log10 GI50 (concentration in mol/L causing 50% growth inhibition),Colon,−4.66 mol/L
same,Log10 TGI (concentration in mol/L causing total growth inhibition),Colon,−5.33 mol/L
same,GI50,SNB-19,4300 nM
same,GI50,TK-10,2330 nM
same,GI50,UACC-62,4670 nM
same,GI50,A549/ATCC,4320 nM
same,CC50,Leukemia; Homo sapiens,0.0001 mol/L
same,Log10 GI50 (concentration in mol/L causing 50% growth inhibition),Leukemia,−4.91 mol/L
same,Log10 TGI (concentration in mol/L causing total growth inhibition (0% growth)),Leukemia,−5.00 mol/L
same,GI50,SNB-75,2010 nM
same,LC50,CNS; Homo sapiens,63100 nM
same,Log10 GI50 (concentration in mol/L causing 50% growth inhibition),CNS,−4.2 mol/L
same,Log10 TGI (concentration in mol/L causing total growth inhibition (0% growth)),CNS,−4.83 mol/L
same,GI50,UO-31,1910 nM
same,GI50,SK-OV-3,5760 nM
same,GI50,SF-539,2070 nM
same,LC50,Non-small cell lung; Homo sapiens,53700 nM
same,Log10 GI50 (concentration in mol/L causing 50% growth inhibition),Non-small cell lung,−4.27 mol/L
same,Log10 TGI (concentration in mol/L causing total growth inhibition (0% growth)),Non-small cell lung,−4.70 mol/L
same,GI50,A498,2760 nM
same,LC50,Melanoma; Homo sapiens,72400 nM
same,Log10 GI50 (concentration in mol/L causing 50% growth inhibition),Melanoma,−4.14 mol/L
same,Log10 TGI (concentration in mol/L causing total growth inhibition),Melanoma,−4.52 mol/L
same,GI50,MOLT-4,2980 nM
same,GI50,PC-3,2810 nM
same,GI50,NCI/ADR-RES,4230 nM
same,GI50,MCF7,1670 nM
same,GI50,SK-MEL-28,2480 nM
same,GI50,NCI-H460,2120 nM
same,GI50,DU-145,2720 nM
same,GI50,ACHN,1880 nM
same,GI50,SR,550 nM
same,GI50,NCIH322M,3010 nM
same,GI50,RXF 393,1480 nM
same,CC50,Ovarian; Homo sapiens,100000 nM
same,Log10 GI50 (concentration in mol/L causing 50% growth inhibition),Ovarian,−4 mol/L
same,Log10 TGI (concentration in mol/L causing total growth inhibition (0% growth)),Ovarian,−4.38 mol/L
